These results are taken from article PMC11110727, “Exploiting thiol-functionalized benzosiloxaboroles for achieving diverse substitution patterns – synthesis, characterization and biological evaluation of promising antibacterial agents” (RSC Medicinal Chemistry, 2024).

For test [1], the system named is S. aureus ATCC 6538P. Nature of the test: Antibacterial activity: MIC/MBC determination and disc-diffusion. The format is cell-based, Staphylococcus aureus. The following applies: S. aureus ATCC 6538P; for diameter of inhibition zone: disc-diffusion, — = zone not observed; for MBC / MIC: Staphylococcus aureus, ATCC6538P; for MIC: read-out: MIC. Here is the method: (§1) Direct antimicrobial activity was determined against the following standard strains: (1) Gram-positive cocci: methicillin-sensitive Staphylococcus aureus ATCC 6538P (MSSA), methicillin-resistant S. aureus subsp. aureus ATCC 43300 (MRSA), S. epidermidis ATCC 12228, Enterococcus faecium ATCC 6057, E. faecalis ATCC 29212, Bacillus subtilis ATCC 6633; (2) Gram-negative bacteria from Enterobacteriales order: Klebsiella pneumoniae ATCC 13883, Escherichia coli ATCC 25922, Enterobacter cloacae DSM 6234, Proteus mirabilis ATCC 12453, Serratia marcescens ATCC 13880; (3) Gram-negative non-fermentative rods: Acinetobacter baumannii ATCC 19606, Pseudomonas aeruginosa ATCC 27853, Stenotrophomonas maltophilia ATCC 12714, S. maltophilia ATCC 13637, Burkholderia cepacia ATCC 25416, Bordetella bronchiseptica ATCC 4617; (4) yeasts: Candida albicans ATCC 90028, C. krusei ATCC 6258, C. parapsilosis ATCC 22019, C. tropicalis (Castellani) Berkhout ATCC 750, C. tropicalis IBA 171, C. guilliermondii IBA 155, and Saccharomyces cerevisiae ATCC 9763. Moreover, 5 clinical strains of methicillin-resistant S. aureus were also included: NMI 664 K, NMI 1576 K, NMI 1712 K, NMI 1991 K, and NMI 2541 K. All strains were stored at −80 °C. Prior to testing, each bacterial strain was subcultured twice on tryptic soy agar TSA (bioMerieux) medium and yeast strains on Sabouraud dextrose agar (bioMerieux) for 24–48 h at 30 °C to ensure viability. The antimicrobial activity was evaluated as previously described[26] by the disc-diffusion method and the MIC determination assays according to the EUCAST (ref. [71] and [72]) and CLSI (ref. [53] and [73]) recommendations. Assessment of bactericidal (MBC) and fungicidal (MFC) activities was performed according to the CLSI recommendations.[54,74] The following reference agents were used: fluconazole (in the case of fungi), linezolid (for Gram-positive bacteria), and nitrofurantoin (for Gram-negative rods). The new benzosiloxaboroles were dissolved in DMSO (Sigma).
(Agar diffusion results depend on both activity and mobility in agar.)

The test system of test [2] is P. aeruginosa ATCC 27853. The experiment in a line: Antibacterial activity: MIC/MBC, MIC with PAβN, disc-diffusion. The settings on record: Pseudomonas aeruginosa, ATCC27853; P. aeruginosa ATCC 27853; read-out: MIC. The format is cell-based. How it is done:
as §1, with “The following reference agents were used: fluconazole (in the case of fungi), linezolid (for Gram-positive bacteria), and nitrofurantoin (for Gram-negative rods).” left out
(§2) Considering that the MDR efflux pumps often contribute to Gram-negative rod resistance, the MIC values of studied agents, with or without the pump inhibitor, PAβN (20 μg mL^−1) (Sigma), were determined.[75] The MIC was determined using Mueller–Hinton II broth medium (MHB) (Becton Dickinson) by the broth microdilution method, according to the CLSI guideliness.[53] To minimize the influence of PAβN on the destabilization of bacterial cell covers, the tests were conducted in the presence of 1 mM MgSO4 (Sigma).[76] At least a 4-fold reduction in the MIC value after the addition of PAβN was considered significant.[56,77]

The test system of test [3] is S. maltophilia ATCC 12714. Described as above. The format is cell-based, Stenotrophomonas maltophilia. The settings on record: S. maltophilia ATCC 12714; for MIC: Stenotrophomonas maltophilia, ATCC12714, read-out: MIC. The gist of the method:
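Read-outs are disc-diffusion zones, broth-microdilution MICs and bactericidal concentrations (MBC), following EUCAST and CLSI guidance. The efflux contribution was probed by rerunning MICs with 20 μg mL^−1 PAβN in MgSO4-supplemented (1 mM) Mueller–Hinton II broth, a ≥4-fold decrease being significant.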

For test [4], the system named is C. parapsilosis ATCC 22019. Nature of the test: Antifungal activity: MIC/MFC, disc-diffusion. The following applies: for MIC: Lodderomyces parapsilosis, ATCC22019, read-out: MIC; for diameter of inhibition zone: C. parapsilosis ATCC 22019, (-) = zone not observed, paper discs 9 mm. The format is cell-based. How it is done: as §1
The test system of test [5] is C. tropicalis IBA 171. The experiment in a line: Antifungal activity: MIC/MFC, disc-diffusion. The following applies: for MIC: Candida tropicalis, IBA171, read-out: MIC; for diameter of inhibition zone: C. tropicalis IBA 171, (-) = zone not observed, paper discs 9 mm. The format is cell-based. Here is the method: as §1
Test [6] relates to C. tropicalis ATCC 750. Nature of the test: Antifungal activity: MIC/MFC, disc-diffusion. The following applies: for MIC: Candida tropicalis, ATCC750, read-out: MIC; for diameter of inhibition zone: C. tropicalis ATCC 750, (-) = zone not observed, paper discs 9 mm. The format is cell-based. How it is done: as §1
For test [7], the system named is C. guilliermondii IBA 155. The experiment in a line: Antifungal activity: MIC/MFC, disc-diffusion. The format is cell-based. The settings on record: for diameter of inhibition zone: C. guilliermondii IBA 155, (-) = zone not observed, paper discs 9 mm; for MIC: Meyerozyma guilliermondii, IBA155, read-out: MIC. Here is the method: as §1
For test [8], the system named is E. cloacae DSM 6234. Nature of the test: Antibacterial activity: MIC/MBC, MIC with PAβN, disc-diffusion. The format is cell-based, Enterobacter cloacae. The following applies: E. cloacae DSM 6234; for MIC: Enterobacter cloacae, DSM6234, read-out: MIC. Here is the method:
as §1, with “The following reference agents were used: fluconazole (in the case of fungi), linezolid (for Gram-positive bacteria), and nitrofurantoin (for Gram-negative rods).” left out
as §2

For test [9], the system named is B. cepacia ATCC 25416. Nature of the test: Antibacterial activity: MIC/MBC, disc-diffusion. The format is cell-based, Burkholderia cepacia. The following applies: Burkholderia cepacia, ATCC25416; B. cepacia ATCC 25416; read-out: MIC. Here is the method:
as §1, with “The following reference agents were used: fluconazole (in the case of fungi), linezolid (for Gram-positive bacteria), and nitrofurantoin (for Gram-negative rods).” left out
as §2

For test [10], the system named is A. baumannii ATCC 19606. The experiment in a line: Antibacterial activity: MIC/MBC, MIC with PAβN, disc-diffusion. The format is cell-based, Acinetobacter baumannii. The following applies: A. baumannii ATCC 19606; for MIC: Acinetobacter baumannii, ATCC19606, read-out: MIC. Here is the method: as §1, with “The following reference agents were used: fluconazole (in the case of fungi), linezolid (for Gram-positive bacteria), and nitrofurantoin (for Gram-negative rods).” left out
as §2

[11] abbreviates: read-out: MBC (first MBC where Eagle effect).
The mark [12] stands for this setting: PAβN 20 μg mL^−1, MHB + 1 mM MgSO4.

≈ marks a conversion by molar mass, not a printed value. Read-outs that look alike come from different tables or passages of the source.

As usually defined, the MBC is the smallest concentration meeting the test's criterion for killing. For orientation: MIC means the lowest concentration found to suppress growth. For the compound `COC(=O)CCSc1ccc2c(c1F)[Si](C)(C)OB2O` [Compound 4, Methyl 3-((7-fluoro-3-hydroxy-1,1-dimethyl-1,3-dihydrobenzo[c][1,2,5]oxasilaborol-6-yl)thio)propanoate], the “diameter of inhibition zone” value in test [1] is given as 27 mm; in [7] it was 12 mm. The MBC in test [1] (setting [11]) stood at 25 µg/mL (≈ 79.6 µM); in test [1] (value after the slash, read-out: second MBC (Eagle effect)), 400 µg/mL (≈ 1270 µM). Also, the MIC was 12.5 µg/mL (≈ 39.8 µM) in [1]; above 400 µg/mL in test [2]; above 400 µg/mL in test [3]; 400 µg/mL (≈ 1270 µM) in [4]; above 400 µg/mL in test [5]; above 400 µg/mL in test [6]. Besides, the MIC in test [7] is 400 µg/mL (≈ 1270 µM); in test [8], above 400 µg/mL; in test [9], above 400 µg/mL; in [10], above 400 µg/mL. Moreover, the “-fold reduction of MIC in the presence of PAβN” value in [3] (setting [12]) is on record as 2 -fold; in test [8] (setting [12]), 8 -fold; in test [10] (setting [12]), 2 -fold.
For `C[Si]1(C)OB(O)c2ccc(SC(=O)c3ccc(C(F)(F)F)cc3)c(F)c21` [Compound 25, S-(7-Fluoro-3-hydroxy-1,1-dimethyl-1,3-dihydrobenzo[c][1,2,5]oxasilaborol-6-yl) 4-(trifluoromethyl)benzothioate], the “diameter of inhibition zone” value in test [1] stood at 11 mm. For the same compound, in test [1] (setting [11]), the minimum bactericidal concentration (MBC) worked out at 25 µg/mL (≈ 62.5 µM). Further, the minimum inhibitory concentration (MIC) in test [1] was 12.5 µg/mL (≈ 31.2 µM); in test [2] it was above 50 µg/mL; in test [3], above 50 µg/mL; in test [4] it was above 50 µg/mL; in test [5] it was 50 µg/mL (≈ 125 µM); in test [6], above 50 µg/mL. Besides, the minimal inhibitory concentration (MIC) is 50 µg/mL (≈ 125 µM) in [7], above 50 µg/mL in [8], above 50 µg/mL in test [9] and above 50 µg/mL in test [10].
For the compound `C[Si]1(C)OB(O)c2cc(F)c(SC3CC(=O)N(c4ccc(F)cc4)C3=O)c(F)c21` (centres unmarked) [Compound 14, 3-((5,7-Difluoro-3-hydroxy-1,1-dimethyl-1,3-dihydrobenzo[c][1,2,5]oxasilaborol-6-yl)thio)-1-(4-fluorophenyl)pyrrolidine-2,5-dione], the “diameter of inhibition zone” value in test [1] stood at 22 mm; in [4] it was 27 mm; in test [5] it was 19 mm; in [6] it was 20 mm; in test [7] it was 31 mm. Further, the MIC in test [1] was 50 µg/mL (≈ 114 µM); in [2], above 200 µg/mL; in test [3], 100 µg/mL (≈ 229 µM); in test [4], 100 µg/mL (≈ 229 µM); in test [5], 200 µg/mL (≈ 457 µM); in test [6], 200 µg/mL (≈ 457 µM). Besides, the MIC in [7] was 100 µg/mL (≈ 229 µM); in test [8] it was above 200 µg/mL; in test [9], above 200 µg/mL; in test [10], above 200 µg/mL.
In the case of `C[Si]1(C)OB(O)c2ccc(SCCC(=O)OCCCCCC[n+]3ccccc3)c(F)c21` [Compound 19, 1-(6-((3-((7-Fluoro-3-hydroxy-1,1-dimethyl-1,3-dihydrobenzo[c][1,2,5]oxasilaborol-6-yl)thio)propanoyl)oxy)hexyl)pyridin-1-ium trifluoromethanesulfonate], the “diameter of inhibition zone” value in test [1] is 20 mm; in test [4] it was 16 mm; in test [5], 16 mm; in test [6] it was 15 mm. Moreover, in test [1] (setting [11]), the MBC came out at 100 µg/mL. In addition, the MIC is 25 µg/mL in test [1]; above 400 µg/mL in [2]; above 400 µg/mL in test [3]; 400 µg/mL in [4]; 400 µg/mL in [5]; 400 µg/mL in [6]. Also, the MIC in [7], in [8], in test [9] and in [10] was above 400 µg/mL each time.
For the compound `CC(=O)CCSc1c(F)cc2c(c1F)[Si](C)(C)OB2O` [Compound 3, 4-((5,7-Difluoro-3-hydroxy-1,1-dimethyl-1,3-dihydrobenzo[c][1,2,5]oxasilaborol-6-yl)thio)butan-2-one], the “diameter of inhibition zone” value in test [1] is 23 mm. Besides, the MBC in test [1] (setting [11]) stood at 100 µg/mL (≈ 316 µM). Further, the minimal inhibitory concentration (MIC) is 50 µg/mL (≈ 158 µM) in test [1]; above 400 µg/mL in [2]; 200 µg/mL (≈ 632 µM) in [3]; 100 µg/mL (≈ 316 µM) in test [4]; 400 µg/mL (≈ 1260 µM) in [5]; above 400 µg/mL in [6]. Also, the minimal inhibitory concentration (MIC) was 200 µg/mL (≈ 632 µM) in test [7], above 400 µg/mL in test [8], above 400 µg/mL in test [9] and above 400 µg/mL in [10].
